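Test compounds were applied to cells in 96-well plates for 48 hours at 5 doses. GI50 = concentration required for 50% inhibition of growth.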 The source made the active and inactive calls. Cut-off read from the data, not from the text of the source: active = GI50 up to about 1.1 µM and inactive = higher. A value given as a limit tells only on which side of the number the result lay.

What all share (experiment): growth of human tumour cells (NCI), 48 h
Assay [1] has as its system MDA-N.
Assay [2] concerns NCI-H226.
The subject of assay [3] is K562.
Assay [4] relates to SF-268.
The subject of assay [5] is A549.
Assay [6] deals with MCF7.
Assay [7] deals with UACC-62.
Assay [8] deals with HOP-62.
Assay [9] concerns SK-MEL-5.
Assay [10] relates to UO-31.
The subject of assay [11] is SN12C.
The subject of assay [12] is EKVX.
Assay [13] concerns SK-MEL-28.
Assay [14] has as its system MDA-MB-435.
Assay [15] concerns HCT-15.
Assay [16] deals with CAKI-1.
Assay [17] relates to HOP-92.
Assay [18] deals with MOLT-4.
The test system of assay [19] is RXF 393.

Take `COc1ccc(CCN2COc3ccc4ccc(=O)oc4c3C2)cc1OC`: the GI50 in assay [1] was > 100 µM (inactive); in assay [2], > 100 µM (inactive); in [3], 50.4 µM (inactive); in [4], 60.4 µM (inactive); in [5], > 100 µM (inactive); in [6], 89.5 µM (inactive). Besides, the GI50 in assay [7] is 50.2 µM (inactive); in [8] it was > 100 µM (inactive); in assay [9] it was 58.1 µM (inactive); in [10], > 100 µM (inactive); in assay [11], > 100 µM (inactive); in [12] it was > 100 µM (inactive). In addition, the GI50 in assay [13] was > 100 µM (inactive); in assay [14], > 100 µM (inactive); in [15], above 100 µM; in assay [16] it was > 100 µM (inactive); in assay [17] it was 21 µM (inactive); in assay [18] it was > 100 µM (inactive). Besides, the GI50 in assay [19] was 85.7 µM (inactive).
In the case of `C#CCCCCC#Cc1ccccc1C(=O)C=[N+]=[N-]`, the GI50 in assay [1] is > 100 µM (inactive); in assay [2], > 100 µM (inactive); in assay [3], 39.8 µM (inactive); in assay [4], > 100 µM (inactive); in [5], > 100 µM (inactive); in [6], > 100 µM (inactive). Also, the GI50 in [7], in assay [8], in assay [9], in [10], in assay [11] and in assay [12] was > 100 µM (inactive) throughout. For the same compound, the GI50 was > 100 µM (inactive) in assay [13]; > 100 µM (inactive) in assay [14]; above 100 µM in assay [15]; > 100 µM (inactive) in [16]; > 100 µM (inactive) in assay [17]; > 100 µM (inactive) in assay [18]. Further, the GI50 in assay [19] was > 100 µM (inactive).
With `NC(=S)N/N=C/c1ncccc1N` [TRIAPINE], the GI50 was 2.65 µM (inactive) in assay [1]; 2.75 µM (inactive) in assay [2]; 3.13 µM (inactive) in assay [3]; 0.925 µM (active) in assay [4]; 2.02 µM (inactive) in [5]; 0.452 µM (active) in [6]. The GI50 is 0.546 µM (active) in assay [7]; 1.19 µM (inactive) in assay [8]; 0.968 µM (active) in [9]; 0.37 µM (active) in assay [10]; 1.41 µM (inactive) in assay [11]; 7.55 µM (inactive) in assay [12]. Also, the GI50 in assay [13] was > 10 µM (inactive); in [14], 1.71 µM (inactive); in assay [15], 1.97 µM; in [16], 0.521 µM (active); in [17] it was 0.553 µM (active); in assay [18] it was 0.438 µM (active). Besides, in assay [19], the GI50 was 1.07 µM (active).
As for `N#C[BH2-][n+]1cn(C2CC(OP(=O)(O)OCC3OC(n4cnc5c(=O)[nH]c(N)nc54)CC3O)C(CO)O2)c2nc(N)[nH]c(=O)c21` (stereo unspecified), the GI50 is > 100 µM (inactive) in assay [1]; > 100 µM (inactive) in [2]; 55.5 µM (inactive) in assay [3]; 44.4 µM (inactive) in [4]; > 100 µM (inactive) in [5]; 62.8 µM (inactive) in [6]. For the same compound, the GI50 in [7], in assay [8], in assay [9], in [10], in assay [11] and in assay [12] was > 100 µM (inactive) each time. In addition, the GI50 in assay [13] was > 100 µM (inactive); in [14], > 100 µM (inactive); in [15], above 100 µM; in assay [16], > 100 µM (inactive); in assay [17], > 100 µM (inactive); in [18], 81.8 µM (inactive). Besides, in assay [19], the GI50 was > 100 µM (inactive).

These data come from ChEMBL document CHEMBL1201862, “PubChem BioAssay data set” (2004).
